Experimental data published in patent publication US9125913B2, “Bcl-2-selective apoptosis-inducing agents for the treatment of cancer and immune diseases” (AbbVie Inc., priority 2008, dated 2015).

Tested on: GST-Bcl-2
Test: TR-FRET binding assay, Bcl-2
Conditions: TR-FRET Ki values
Summary of the method: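 Ki values come from Wang's competitive-binding equation applied to TR-FRET signal (excitation 340/35 nm; emission 520/525 nm F-Bak peptide, 495/510 nm Tb antibody). Protein, probe and antibody incubated with compound 3 h at room temperature; dilution series began at 50 μM as 2× stock in 10% DMSO.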

Row | SMILES | Binding selectivity ratio (Bcl-XL Ki/Bcl-2 Ki)
1 | CC1(C)CCC(CN2CCN(c3ccc(C(=O)NS(=O)(=O)c4ccc(NCC5CCOC5)c([N+](=O)[O-])c4)c(Oc4cccc5[nH]cnc45)c3)CC2)=C(c2ccc(Cl)cc2)C1 (stereo not shown) [EXAMPLE 439, 2-(1H-benzimidazol-4-yloxy)-4-(4-{[2-(4-chlorophenyl)-4,4-dimethylcyclohex-1-en-1-yl]methyl}piperazin-1-yl)-N-({3-nitro-4-[(tetrahydrofuran-3-ylmethyl)amino]phenyl}sulfonyl)benzamide] | 1496.8
2 | CC(C1=C(c2ccc(Cl)cc2)CC(C)(C)CC1)N1CCN(c2ccc(C(=O)NS(=O)(=O)c3ccc(NCC4CCOCC4)c([N+](=O)[O-])c3)c(Oc3ccc4[nH]ccc4c3)c2)CC1 (stereo not shown) [EXAMPLE 253, 4-(4-{1-[2-(4-chlorophenyl)-4,4-dimethylcyclohex-1-en-1-yl]ethyl}piperazin-1-yl)-2-(1H-indol-5-yloxy)-N-({3-nitro-4-[(tetrahydro-2H-pyran-4-ylmethyl)amino]phenyl}sulfonyl)benzamide] | >4663.3
3 | CC1(C)CCC(CN2CCN(c3ccc(C(=O)NS(=O)(=O)c4ccc(OCCC5CCOCC5)c([N+](=O)[O-])c4)c(Oc4cccc5[nH]ccc45)c3)CC2)=C(c2ccc(Cl)cc2)C1 [EXAMPLE 314, 4-(4-{[2-(4-chlorophenyl)-4,4-dimethylcyclohex-1-en-1-yl]methyl}piperazin-1-yl)-2-(1H-indol-4-yloxy)-N-{[3-nitro-4-(2-tetrahydro-2H-pyran-4-ylethoxy)phenyl]sulfonyl}benzamide] | >215.3
4 | CC(C)(C)c1ccc(CN2CCN(c3ccc(C(=O)NS(=O)(=O)c4ccc(OCC5CCOCC5)c([N+](=O)[O-])c4)c(Oc4ccc5[nH]ccc5c4)c3)CC2)c(-c2ccc(Cl)cc2)c1 [EXAMPLE 342, 4-{4-[(5-tert-butyl-4′-chloro-1,1′-biphenyl-2-yl)methyl]piperazin-1-yl}-2-(1H-indol-5-yloxy)-N-{[3-nitro-4-(tetrahydro-2H-pyran-4-ylmethoxy)phenyl]sulfonyl}benzamide] | >25.6
5 | CN1CCN(CCNc2ccc(S(=O)(=O)NC(=O)c3ccc(N4CCN(Cc5ccccc5-c5ccc(Cl)cc5)CC4)cc3Oc3ccccc3)cc2[N+](=O)[O-])CC1 [Example 85, 4-{4-[(4′-chloro-1,1′-biphenyl-2-yl)methyl]piperazin-1-yl}-N-[(4-{[2-(4-methylpiperazin-1-yl)ethyl]amino}-3-nitrophenyl)sulfonyl]-2-phenoxybenzamide] | 48.8
6 | CN1CCN(CCNc2ccc(S(=O)(=O)NC(=O)c3ccc(N4CCN(CC5=C(c6ccc(Cl)cc6)CC(C)(C)CC5)CC4)cc3Oc3cccc4[nH]ccc34)cc2[N+](=O)[O-])CC1 [Example 101, 4-(4-{[2-(4-chlorophenyl)-4,4-dimethylcyclohex-1-en-1-yl]methyl}piperazin-1-yl)-2-(1H-indol-4-yloxy)-N-[(4-{[2-(4-methylpiperazin-1-yl)ethyl]amino}-3-nitrophenyl)sulfonyl]benzamide] | 121.2
7 | CC1(C)CCC(CN2CCN(c3ccc(C(=O)NS(=O)(=O)c4ccc(NN5CCN(CCO)CC5)c([N+](=O)[O-])c4)c(Oc4ccc5[nH]ccc5c4)c3)CC2)=C(c2ccc(Cl)cc2)C1 [EXAMPLE 233, 4-(4-{[2-(4-chlorophenyl)-4,4-dimethylcyclohex-1-en-1-yl]methyl}piperazin-1-yl)-N-[(4-{[4-(2-hydroxyethyl)piperazin-1-yl]amino}-3-nitrophenyl)sulfonyl]-2-(1H-indol-5-yloxy)benzamide] | >2714.3
8 | COCCOCCSc1ccc(S(=O)(=O)NC(=O)c2ccc(N3CCN(CC4=C(c5ccc(Cl)cc5)CC(C)(C)CC4)CC3)cc2Oc2ccc3[nH]ccc3c2)cc1[N+](=O)[O-] [EXAMPLE 380, 4-(4-{[2-(4-chlorophenyl)-4,4-dimethylcyclohex-1-en-1-yl]methyl}piperazin-1-yl)-2-(1H-indol-5-yloxy)-N-[(4-{[2-(2-methoxyethoxy)ethyl]thio}-3-nitrophenyl)sulfonyl]benzamide] | 2107.3
9 | O=C(NS(=O)(=O)c1ccc(NCC2CCOCC2)c([N+](=O)[O-])c1)c1ccc(N2CCN(Cc3ccccc3-c3ccc(Cl)cc3)CC2)cc1Oc1cccc2ccccc12 [Example 34, 4-{4-[(4′-chloro-1,1′-biphenyl-2-yl)methyl]piperazin-1-yl}-2-(1-naphthyloxy)-N-({3-nitro-4-[(tetrahydro-2H-pyran-4-ylmethyl)amino]phenyl}sulfonyl)benzamide] | 44.3
10 | CN1CCC(Oc2ccc(S(=O)(=O)NC(=O)c3ccc(N4CCN(CC5=C(c6ccc(Cl)cc6)CC(C)(C)CC5)CC4)cc3Oc3ccc4[nH]ccc4c3)cc2[N+](=O)[O-])CC1 [EXAMPLE 353, 4-(4-{[2-(4-chlorophenyl)-4,4-dimethylcyclohex-1-en-1-yl]methyl}piperazin-1-yl)-2-(1H-indol-5-yloxy)-N-({4-[(1-methylpiperidin-4-yl)oxy]-3-nitrophenyl}sulfonyl)benzamide] | >2260.0
11 | O=C(NS(=O)(=O)c1ccc(NCC2CCOCC2)c([N+](=O)[O-])c1)c1ccc(N2CCN(Cc3ccccc3-c3ccc(Cl)cc3)CC2)cc1Oc1cccnc1 [Example 79, 4-{4-[(4′-chloro-1,1′-biphenyl-2-yl)methyl]piperazin-1-yl}-N-({3-nitro-4-[(tetrahydro-2H-pyran-4-ylmethyl)amino]phenyl}sulfonyl)-2-(pyridin-3-yloxy)benzamide] | 47.4
12 | CC1(C)CCC(CN2CCN(c3ccc(C(=O)NS(=O)(=O)c4ccc(NC(CO)C5CCOCC5)c([N+](=O)[O-])c4)c(Oc4ccc5[nH]ccc5c4)c3)CC2)=C(c2ccc(Cl)cc2)C1 (stereo not shown) [EXAMPLE 242, 4-(4-{[2-(4-chlorophenyl)-4,4-dimethylcyclohex-1-en-1-yl]methyl}piperazin-1-yl)-N-({4-[(2-hydroxy-1-tetrahydro-2H-pyran-4-ylethyl)amino]-3-nitrophenyl}sulfonyl)-2-(1H-indol-5-yloxy)benzamide] | >367.6
13 | CC1(C)CCC(CN2CCN(c3ccc(C(=O)NS(=O)(=O)c4ccc(NC5CCN(CCn6cccn6)CC5)c([N+](=O)[O-])c4)c(Oc4ccc5[nH]ccc5c4)c3)CC2)=C(c2ccc(Cl)cc2)C1 [EXAMPLE 243, 4-(4-{[2-(4-chlorophenyl)-4,4-dimethylcyclohex-1-en-1-yl]methyl}piperazin-1-yl)-2-(1H-indol-5-yloxy)-N-{[3-nitro-4-({1-[2-(1H-pyrazol-1-yl)ethyl]piperidin-4-yl}amino)phenyl]sulfonyl}benzamide] | >2357.6
14 | O=C(NS(=O)(=O)c1ccc(NCC2CCOCC2)c([N+](=O)[O-])c1)c1ccc(N2CCN(Cc3cc(OCCN4CCOCC4)ccc3-c3ccc(Cl)cc3)CC2)cc1Oc1ccc2[nH]ccc2c1 [Example 127, 4-(4-{[4′-chloro-4-(2-morpholin-4-ylethoxy)-1,1′-biphenyl-2-yl]methyl}piperazin-1-yl)-2-(1H-indol-5-yloxy)-N-({3-nitro-4-[(tetrahydro-2H-pyran-4-ylmethyl)amino]phenyl}sulfonyl)benzamide] | >1437.9
15 | CC1(C)CCC(c2ccc(Cl)cc2)=C(CN2CCN(c3ccc(C(=O)NS(=O)(=O)c4ccc(NCCCN5CCOCC5)c([N+](=O)[O-])c4)c(Oc4ccccc4)c3)CC2)C1 [Example 19, 4-(4-{[2-(4-chlorophenyl)-5,5-dimethylcyclohex-1-en-1-yl]methyl}piperazin-1-yl)-N-({4-[(3-morpholin-4-ylpropyl)amino]-3-nitrophenyl}sulfonyl)-2-phenoxybenzamide] | 23.6
16 | CC1(C)CCC(CN2CCN(c3ccc(C(=O)NS(=O)(=O)c4ccc(N[C@H]5CC[C@H](N6CCOCC6)CC5)c([N+](=O)[O-])c4)c(Oc4cccc5[nH]ccc45)c3)CC2)=C(c2ccc(Cl)cc2)C1 [EXAMPLE 204, Trans-4-(4-{[2-(4-chlorophenyl)-4,4-dimethylcyclohex-1-en-1-yl]methyl}piperazin-1-yl)-2-(1H-indol-4-yloxy)-N-({4-[(4-morpholin-4-ylcyclohexyl)amino]-3-nitrophenyl}sulfonyl)benzamide] | 291.3
17 | CC1(C)CCC(CN2CCN(c3ccc(C(=O)NS(=O)(=O)c4ccc(NC5CCN(Cc6nccs6)CC5)c([N+](=O)[O-])c4)c(Oc4ccc5[nH]ccc5c4)c3)CC2)=C(c2ccc(Cl)cc2)C1 [EXAMPLE 230, 4-(4-{[2-(4-chlorophenyl)-4,4-dimethylcyclohex-1-en-1-yl]methyl}piperazin-1-yl)-2-(1H-indol-5-yloxy)-N-[(3-nitro-4-{[1-(1,3-thiazol-2-ylmethyl)piperidin-4-yl]amino}phenyl)sulfonyl]benzamide] | >74.8
18 | CC1(C)CCC(CN2CCN(c3ccc(C(=O)NS(=O)(=O)c4ccc(NCCN5CCNC(=O)C5)c([N+](=O)[O-])c4)c(Oc4cccc5[nH]ccc45)c3)CC2)=C(c2ccc(Cl)cc2)C1 [EXAMPLE 280, 4-(4-{[2-(4-chlorophenyl)-4,4-dimethylcyclohex-1-en-1-yl]methyl}piperazin-1-yl)-2-(1H-indol-4-yloxy)-N-[(3-nitro-4-{[2-(3-oxopiperazin-1-yl)ethyl]amino}phenyl)sulfonyl]benzamide] | 1097.2
19 | CC1(C)CCC(CN2CCN(c3ccc(C(=O)NS(=O)(=O)c4ccc(NC5CCS(=O)(=O)C5)c([N+](=O)[O-])c4)c(Oc4cccc5[nH]ccc45)c3)CC2)=C(c2ccc(Cl)cc2)C1 (stereo not shown) [EXAMPLE 299, 4-(4-{[2-(4-chlorophenyl)-4,4-dimethylcyclohex-1-en-1-yl]methyl}piperazin-1-yl)-N-({4-[(1,1-dioxidotetrahydrothien-3-yl)amino]-3-nitrophenyl}sulfonyl)-2-(1H-indol-4-yloxy)benzamide] | 577.7
